In one data set the test system is neurons seeded in chip. It is filed as cell-based, human.
In a further data set the test system is iBMEC barrier. Description: TEER measurement of iBMEC barrier function on TEER chips under flow. Type of data set: cell-based, human. Conditions: exposure of chips under flow to TNFa, FIG. 14A. How it is done:
Cells were plated on tall channel PDMS chips equipped with incorporated gold electrodes on each channel (see FIG. 13A). Post seeding of BMECs, transendothelial electrical resistance was measured by connecting the electrodes to an EVOM2 voltohmmeter (see FIG. 13B). […] The “damaged” chip was a failure due to the TEER-Chips being a prototype.
Higher TEER values generally indicate a tighter barrier, which is typically desirable for a blood-brain barrier.

The subject of data set [1] is BMECs seeded on a microfluidic device. Description: Paracellular permeability assay with Dextran-FITC on chip. Type of data set: cell-based, human. Conditions: TNFa exposure, FIG. 14B. As to the method:
Albumin or Dextran conjugated to a fluorescent probe (e.g., FITC or TRITC) are frequently used to monitor changes in leakage, and thus barrier function. In this case, Dextran-FITC, a green fluorescent molecule of 4 KDa, or sodium fluorescein (a 0.3 KDa molecule), was added to the bottom (“blood side”) channel. Paracellular permeability was calculated by measuring the permeability of the fluorescent molecule on the Top (“brain side”) channel. […] FIG. 14B involves TNF-alpha exposure, but the readout is membrane permeability as measured by Dextran-FITC.

Data set [2] deals with cell monolayers with tight junctions. Conditions: passive paracellular diffusion only; cited from earlier work.

Entries after “also recorded” stand apart in the source; their conditions may differ.

With `NC1=N[C@H](O)[C@H]2[C@H]3O[C@]4(O)O[C@@H]([C@@H](O)[C@@]2(N1)[C@@H]4O)[C@]3(O)CO` [TTX, tetrodotoxin], the “effect on neuronal calcium flux activity” value in the data set with neurons seeded in chip was “ablates this activity”. Take TNFa: the “effect on iBMEC barrier function (TEER)” value in the data set on iBMEC barrier is “weakening of barrier function; also recorded: decrease in barrier function and TEER”. Moreover, the “effect on permeability to dextran-FITC through the semi-porous membrane” value in data set [1] is “increase in permeability”.

Lucifer Yellow: in data set [2], the “permeability across cell monolayers (in words)” value is given as “low permeability”.

Values taken from patent US11174462B2, “Microfluidic model of the blood brain barrier” (EMULATE, Inc., priority 2015, dated 2021).
